Data as given in patent publication US20250214932A1, “T-TYPE CALCIUM CHANNEL MODULATORS COMPRISING AN AZASPIRONONANE CORE AND METHODS OF USE THEREOF” (Praxis Precision Medicines, Inc., priority 2022, published 2025).
Like-named read-outs stand apart in the source and are kept apart here.

Legend:
[1] = test system: absence seizures; conditions: patients treated with either of these drugs; cited from earlier work
[2] = biological target: Human Cav3.1 (Homo sapiens (Human), UniProt O43497); experiment: Human Cav3.1 calcium channel patch clamp assay (SyncroPatch 384PE, HEK-293 natClytin/TASK1+Cav3.1 cell line); assay type: cell-based
[3] = voltage dependent block (VDB), read-out: Cav3.1 (VDB) IC50

Chain of Human Cav3.1 (O43497 whole entry): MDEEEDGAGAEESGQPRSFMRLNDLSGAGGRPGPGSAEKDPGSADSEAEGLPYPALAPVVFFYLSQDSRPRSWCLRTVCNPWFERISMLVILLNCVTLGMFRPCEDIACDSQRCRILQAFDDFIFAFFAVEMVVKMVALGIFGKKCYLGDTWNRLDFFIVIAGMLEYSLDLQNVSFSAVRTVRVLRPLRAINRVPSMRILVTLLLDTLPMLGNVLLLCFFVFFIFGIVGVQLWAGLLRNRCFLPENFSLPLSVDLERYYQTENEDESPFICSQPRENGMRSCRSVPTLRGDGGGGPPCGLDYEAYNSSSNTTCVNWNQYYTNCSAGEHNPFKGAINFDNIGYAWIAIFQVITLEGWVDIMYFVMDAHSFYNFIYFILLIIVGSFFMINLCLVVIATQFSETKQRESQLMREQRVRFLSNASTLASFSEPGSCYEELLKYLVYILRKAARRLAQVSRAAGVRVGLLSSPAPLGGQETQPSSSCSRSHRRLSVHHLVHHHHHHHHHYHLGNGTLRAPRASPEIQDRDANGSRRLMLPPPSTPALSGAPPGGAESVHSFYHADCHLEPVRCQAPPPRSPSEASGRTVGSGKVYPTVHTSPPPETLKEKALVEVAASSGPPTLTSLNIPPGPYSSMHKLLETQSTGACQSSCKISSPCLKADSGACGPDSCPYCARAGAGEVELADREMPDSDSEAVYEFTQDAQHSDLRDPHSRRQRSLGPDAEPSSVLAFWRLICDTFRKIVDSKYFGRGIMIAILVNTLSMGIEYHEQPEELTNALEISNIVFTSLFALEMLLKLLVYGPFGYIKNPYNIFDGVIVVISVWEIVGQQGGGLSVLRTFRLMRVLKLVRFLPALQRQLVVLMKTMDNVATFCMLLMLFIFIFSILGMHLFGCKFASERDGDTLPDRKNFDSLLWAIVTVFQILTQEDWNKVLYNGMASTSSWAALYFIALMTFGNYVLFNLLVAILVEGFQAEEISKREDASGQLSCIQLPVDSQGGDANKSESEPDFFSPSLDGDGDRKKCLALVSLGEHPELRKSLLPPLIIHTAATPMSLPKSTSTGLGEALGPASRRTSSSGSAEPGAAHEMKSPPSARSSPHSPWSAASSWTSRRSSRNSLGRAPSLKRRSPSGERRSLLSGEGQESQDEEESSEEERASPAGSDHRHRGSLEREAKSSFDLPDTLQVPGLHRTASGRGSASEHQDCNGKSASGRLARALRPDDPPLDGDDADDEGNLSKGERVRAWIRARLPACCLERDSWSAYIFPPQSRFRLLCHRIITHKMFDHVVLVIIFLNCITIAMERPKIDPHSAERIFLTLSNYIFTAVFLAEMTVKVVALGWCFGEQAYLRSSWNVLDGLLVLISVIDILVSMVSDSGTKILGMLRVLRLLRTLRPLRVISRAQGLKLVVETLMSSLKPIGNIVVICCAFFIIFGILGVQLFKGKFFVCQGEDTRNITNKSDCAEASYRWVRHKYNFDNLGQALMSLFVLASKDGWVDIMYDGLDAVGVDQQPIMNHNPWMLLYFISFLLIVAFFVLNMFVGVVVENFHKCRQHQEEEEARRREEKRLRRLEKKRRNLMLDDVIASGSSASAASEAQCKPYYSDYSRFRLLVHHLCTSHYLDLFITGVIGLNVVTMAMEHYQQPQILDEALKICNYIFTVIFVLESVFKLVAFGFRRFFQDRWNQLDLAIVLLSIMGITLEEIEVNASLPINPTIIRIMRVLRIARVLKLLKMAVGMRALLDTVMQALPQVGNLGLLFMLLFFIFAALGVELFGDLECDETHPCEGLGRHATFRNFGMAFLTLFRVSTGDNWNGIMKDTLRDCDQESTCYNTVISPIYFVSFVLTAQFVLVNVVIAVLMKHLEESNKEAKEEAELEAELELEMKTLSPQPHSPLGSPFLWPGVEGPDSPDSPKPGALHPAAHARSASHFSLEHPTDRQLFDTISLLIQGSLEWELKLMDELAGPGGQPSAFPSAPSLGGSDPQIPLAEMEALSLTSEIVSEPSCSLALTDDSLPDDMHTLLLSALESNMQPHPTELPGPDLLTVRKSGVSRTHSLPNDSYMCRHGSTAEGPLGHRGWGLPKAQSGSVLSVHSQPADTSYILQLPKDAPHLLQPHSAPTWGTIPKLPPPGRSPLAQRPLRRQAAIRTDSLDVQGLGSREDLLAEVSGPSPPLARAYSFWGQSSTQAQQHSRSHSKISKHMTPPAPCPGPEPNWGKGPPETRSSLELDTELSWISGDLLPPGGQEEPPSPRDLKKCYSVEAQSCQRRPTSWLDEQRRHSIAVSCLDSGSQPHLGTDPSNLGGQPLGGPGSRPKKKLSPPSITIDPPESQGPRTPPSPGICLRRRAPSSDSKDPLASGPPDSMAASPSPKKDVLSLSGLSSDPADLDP

CCCC(CCC)C(=O)O [valproate]
intolerable side effects, patients affected [1]: 24%

N#CC1(CN2CC3(CCC(C(=O)Nc4cc(Cl)cc(OC(F)F)c4)CC3)C2)CC1 [Example 137]
IC50 [2, 3]: 1260 nM

N#CC1(CN2CC3(CCC(C(=O)Nc4cc(F)cc(Cl)c4)CC3)C2)CCCCC1 [Example 98]
IC50 [2, 3]: 352 nM

O=C(Nc1cc(F)cc(Cl)c1)C1CCC2(CC1)CN(Cc1cccc(C(F)(F)F)c1)C2 [Example 24]
IC50 ([2]; patch clamp, HEK-293 natClytin/TASK1+Cav3.1 cells, class symbols, read-out: Human Cav3.1 IC50): < 1000 nM
IC50 [2, 3]: 890 nM

CC(C)(C)NC(=O)CN1CC2(CCC(F)(C(=O)Nc3cc(F)cc(C(F)F)c3)CC2)C1 [Example 51]
IC50 [2, 3]: 469 nM

CC(C)(NC(=O)CN1CC2(CCC(C(=O)Nc3cccc(C(F)F)c3)CC2)C1)C(F)(F)F [Example 65]
IC50 [2, 3]: 430 nM

N#CC1(CN2CC3(CCC(C(=O)Nc4cc(F)cc(Cl)c4)CC3)C2)CCC1 [Example 122]
IC50 [2, 3]: 750 nM
